Reference: patent US20150064221A1, “COMPOUNDS HAVING IMMUNOMUDULATOR ACTIVITY” (priority 2012, published 2015)
Entries after “also recorded” stand apart in the source; their conditions may differ.

Assays:
Oral absorption in mice = format: in vivo
Experimental: (§1) The highest plasma concentrations generally occurred in 1-2 hours. […] The highest level of inhibition was ˜35% for 2C19 at a 30 μM concentration. […] Lastly, VGX-1027 is stable in human liver S9 fractions (with phase 1 and 2 cofactors) with t1/2>90 minutes, which indicates a low likelihood of metabolism in the liver.

COX-1 = COX-1 (Homo sapiens, UniProt P23219); assay: COX-1 activity; format: biochemical
Experimental: as §1

COX-2 = COX-2 (Homo sapiens, UniProt P35354); assay: COX-2 activity; format: biochemical
Experimental: as §1

[1] = test system: 30 primary molecular targets; assay: Radioligand binding assay (MDS Pharma HitProfiling Screen); conditions: 30 targets, concentrations up to 10 μM; significant = ≧50% inhibition or stimulation
Experimental: VGX-1027 was negative in a radioligand binding assay (MDS Pharma HitProfiling Screen) that tested 30 primary molecular targets at concentrations up to 10 μM. No significant response (≧50% inhibition or stimulation for Biochemical assays) were noted.

[2] = Twenty-eight day toxicology study in mice; format: in vivo; conditions: 28 days, highest dose 500 mg/kg/day
Experimental: Twenty-eight day toxicology studies were performed in both mice and dogs with increasing concentration to achieve toxicity. The following are the results of those studies.

[3] = test system: Peritoneal macrophages (PM); assay: In vitro cytokine synthesis by peritoneal macrophages; format: cell-based, mice
Source text: Peritoneal macrophages (PM) and splenic mononuclear cells (SMNC) were isolated from normal mice, cultured in nutrient medium and stimulated with LPS and/or ConA in the absence or presence of VGX-1027. […] VGX-1027 had no effect on MIF expression in either cell type, on proliferation of SMNC, and on IL-10 and Interferon (IFN) γ production by SMNC.

MLD-STZ-induced diabetes = assay: Streptozotocin (MLD-STZ) induced diabetes; format: in vivo, CBA/H mice
Experimental: (A) Euglycaemic female 12 week old NOD mice were treated intraperitoneally with either 20 mg/kg bw VGX-1027 or its vehicle six times a week from the 12th until the 25th week of age. An additional control group of mice was left untreated. Each group consisted of 16 mice. The data are representative of two independent experiments that were merged because of interstudies variability lower than 10%. Statistical analysis was performed by Logrank (Mantel-Cox). (B) Plasma glucose levels in control CBA/H mice receiving STZ (40 mg/kg/day, for 5 consecutive days) in conjunction with 12 daily intreperitoneum injections of vehicle (STZ), or in mice treated with STZ and VGX-1027 given as a continuous 12-day treatment. 100 mg/kg bw of VGX-1027, administered orally from day −1 to day +10. Results from a representative experiment are presented as mean±SD for seven to eight mice per group. *p<0.05 refers to treatment with MLD-STZ.
Both intraperitoneal and oral treatment with VGX-1027 suppressed clinical development of diabetes. Clinical development of diabetes was attempted to be induced in CBA/H mice by multiple low doses of streptozotocin. CBA/H mice developed sustained hyperglycemia over a 2-week period following MLD-STZ injections. As expected, CBA/H control mice treated with the vehicle of VGX-1027 either orally or intraperitoneally developed diabetes with sustained hyperglycemia developed over a 2-week period following MLD-STZ injections.
The effect of VGX-1027 with STZ-induced diabetes was also evaluated. STZ is a DNA alkylating agent with particular toxicity to pancreatic β cells. VGX-1027 was administered orally for 12 days, and STZ was administered into mice for 5 consecutive days starting a day after VGX-1027 treatment.

[4] = test system: RIN-m5F and MIN6 insulinoma cell lines; assay: Cytokine-stimulated insulinoma cell lines; format: cell-based
Experimental: Both results were determined 48 hours post stimulation, and VGX-1027 was added at the time of stimulation.
Insulinoma cell lines, which die following stimulation with either IL-1β/INF-γ or TNF-α/INF-γ, were used in this study. Specifically, cell lines RIN-m5F and MIN6 were treated with either IL-1β/INF-γ alone or IL-1β/INF-γ/VGX-1027, and TNF-α production, which is a consequence of stimulation with these factors, was measured.

p38 and 1-kBα = assay: LPS-induced signalling pathway phosphorylation; format: cell-based
Experimental: (A) Thioglycollate-elicited macrophages (1×10^6/ml) were stimulated with either LPS (5 μg/ml), zymosan (ZYM, 50 μg/ml), MDP (25 μg/ml), or Poly(I:C) (50 μg/ml) in the presence or absence of VGX-1027 (10 μg/ml). TNF-α was measured 48 hours post treatment. (B) Relative phosphorylations of 1-κBα and p38 were measured at the indicated time points following stimulation with LPS (5 μg/ml). The y-axis is presented as fold change in comparison to the values obtained from LPS-treated cultures alone. * p<0.05.
(Jiang et al., J. Biol. Chem., (278) 16713-16719 (2003). In addition, it was observed that VGX-1027 inhibited LPS-induced phosphorylation of p38 and 1-kBα, indicating VGX-1027 inhibits a protein upstream of both the p38 and NF-κB, signaling pathways (FIG. 4b).

[5] = test system: In vitro-derived human DCs; assay: LPS-induced cytokine production of dendritic cells; format: cell-based; conditions: LPS 5 μg/ml, 10 mM, 72 hours
Experimental: In vitro-derived human DCs were treated with LPS (5 μg/ml), with or without VGX-1027 (10 mM) for 72 hours. Concentrations of the cytokines in the media were measured via ELISA.

SEB-induced lethal shock = test system: SEB-induced lethal shock; set-up: species or system mice; conditions: mouse, in vivo
DNBS-induced colitis = conditions: DNBS model; Mangano et al. 2008; cited from earlier work

Sequence of COX-2 (P35354 18-604): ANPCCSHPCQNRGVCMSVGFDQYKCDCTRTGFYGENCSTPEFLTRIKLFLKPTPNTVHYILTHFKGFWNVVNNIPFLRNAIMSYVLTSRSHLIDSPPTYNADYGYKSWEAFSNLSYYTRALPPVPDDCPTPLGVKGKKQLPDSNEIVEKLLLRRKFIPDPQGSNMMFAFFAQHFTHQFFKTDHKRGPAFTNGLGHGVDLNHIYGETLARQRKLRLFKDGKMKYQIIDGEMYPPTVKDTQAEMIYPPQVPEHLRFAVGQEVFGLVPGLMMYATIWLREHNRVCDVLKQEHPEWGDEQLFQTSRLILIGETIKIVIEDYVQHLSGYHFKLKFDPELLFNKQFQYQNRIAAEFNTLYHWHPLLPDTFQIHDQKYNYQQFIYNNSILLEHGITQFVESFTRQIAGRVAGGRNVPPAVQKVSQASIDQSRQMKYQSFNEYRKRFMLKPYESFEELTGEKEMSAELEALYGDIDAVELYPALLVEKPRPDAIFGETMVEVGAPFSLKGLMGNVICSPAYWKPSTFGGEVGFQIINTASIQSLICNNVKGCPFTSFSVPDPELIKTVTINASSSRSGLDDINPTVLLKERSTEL
Sequence of COX-1 (P23219 24-599): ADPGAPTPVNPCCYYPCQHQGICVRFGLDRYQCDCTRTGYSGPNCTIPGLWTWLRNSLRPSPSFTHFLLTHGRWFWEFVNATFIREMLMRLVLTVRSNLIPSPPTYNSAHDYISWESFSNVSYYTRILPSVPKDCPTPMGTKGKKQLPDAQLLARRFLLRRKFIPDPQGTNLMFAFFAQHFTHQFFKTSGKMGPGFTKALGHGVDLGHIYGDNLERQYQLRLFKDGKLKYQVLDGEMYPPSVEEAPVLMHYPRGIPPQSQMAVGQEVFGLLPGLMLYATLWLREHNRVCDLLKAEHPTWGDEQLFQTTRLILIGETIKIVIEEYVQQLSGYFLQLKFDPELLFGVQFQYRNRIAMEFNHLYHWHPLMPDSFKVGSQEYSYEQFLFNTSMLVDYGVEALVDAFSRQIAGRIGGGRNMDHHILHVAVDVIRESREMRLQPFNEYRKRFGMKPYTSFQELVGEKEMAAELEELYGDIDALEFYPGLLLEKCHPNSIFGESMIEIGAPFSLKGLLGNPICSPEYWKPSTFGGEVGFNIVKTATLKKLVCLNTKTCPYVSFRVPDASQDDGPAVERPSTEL

With `O=C(O)CC1CC(c2ccccc2)=NO1` (centres unmarked) [VGX-1027, 3-phenyl-4,5-dihydro-5-isoxazoleacetic acid] the oral absorption (Oral absorption in mice) was “rapidly absorbed”, the “time of highest plasma concentrations” value (Oral absorption in mice) was 1 to 2 h and the “inhibition of COX-1 activity” value (COX-1) was “no significant inhibition”. The “inhibition of COX-2 activity” value (COX-2) was “no significant inhibition”, the radioligand binding result [1] was “negative” and the toxicology findings [2] was “notable changes found in kidneys, liver, spleen, testis, epidydimus and bladder”. The “IL-1 β production” value [3] was “inhibited”, the IL-10 production [3] was “inhibited” and the MIF expression [3] was “no effect”. The TNF-α production ([3]; LPS and/or ConA stimulated) was “markedly inhibited”, the “diabetogenic effect of MLD-STZ” value (MLD-STZ-induced diabetes; intraperitoneally) was “significantly reduced” and the development of hyperglycemia (MLD-STZ-induced diabetes; orally (100 mg/kg, 12 days), 100 mg/kg) was “did not develop hyperglycemia; also recorded: significantly reducing”. The “infiltration of immune cells, atrophy and loss of islet margins in pancreas” value (MLD-STZ-induced diabetes; orally, 12 days) was “prevented”, the TNF-α production ([4]; IL-1β/INF-γ stimulation, both cell types, 48 hours) was “significantly repressed” and the cell viability ([4]; IL-1β/INF-γ with co-treatment, 48 hours) was “over 60%”. For the same compound, the “cell viability with exogenous rTNF-α” value ([4]; IL-1β/INF-γ/TNF-α) was “prevented the protective effect”, the ERK pathway (p38 and 1-kBα) was “up-regulation” and the “phosphorylation of 1-kBα” value (p38 and 1-kBα; LPS-induced) was “inhibited”. The “phosphorylation of p38” value (p38 and 1-kBα; LPS-induced) was “inhibited”, the IL-6 production [5] was “dramatically repressed” and the IL-18 production [5] was “dramatically repressed”. For the same compound, the IL-23 production [5] was “dramatically repressed”, the TNF-α production [5] was “dramatically repressed” and the “symptomology associated with SEB challenge” value (SEB-induced lethal shock) was “attenuated”. The survival (SEB-induced lethal shock; ip) was 50% and the “colonic production of proinflammatory cytokines (IL-1β, TNF-α, IL-12p70, IFN-γ)” value (DNBS-induced colitis) was “reduced colonic production”.
